Reference: ChEMBL document CHEMBL4017442, “Recent updates of carbapenem antibiotics” (Eur J Med Chem, 2017)
Blank lines part the entries; values can stand above or below the compound they belong to.

What was measured:
[1] = Half life in iv dosed human; format: ADME, organism-based; details: in vivo
[2] = Clearance in end-stage renal disease patient undergoing drug hydrolysis; format: ADME; details: human
[3] = Clearance in end-stage renal disease patient without drug hydrolysis; format: ADME; details: human
Blood [4] = experiment: Drug uptake in end-stage renal disease patient blood at 0.5 g, iv; format: ADME, tissue-based; details: human
Blood [5] = experiment: Drug uptake in end-stage renal disease patient blood at 0.75 g, iv; format: ADME, tissue-based; details: human
[6] = Ratio of drug level in serum to cerebrospinal fluid in human; format: ADME
Mus musculus = experiment: Anti-inflammatory activity in mouse model of CLP-induced sepsis assessed as survival time at 25 ug/g, sc in presence of atorvastatin (reference value: 20 +/- 1.66 hrs); format: functional
Staphylococcus aureus [7] = experiment: Potentiation of imipenem-induced antibacterial activity against methicillin-reisitant Staphylococcus aureus assessed as imipenem MIC (reference value: 16 ug/ml); format: functional
[8] = Elimination half life in human at 1 g, iv administered as single dose; format: ADME, organism-based; details: in vivo, read-out: beta t1/2 (converted)
Plasma = experiment: Protein binding in human plasma at < 50 ug/ml; format: ADME, cell-free
Staphylococcus aureus [9] = experiment: Potentiation of imipenem-induced antibacterial activity against methicillin-reisitant Staphylococcus aureus assessed as fold reduction in imipenem MIC at 10 ug/ml measured after 20 hrs by liquid microdilution method relative to imipenem alone; format: functional

SMILES: C[C@@H](O)[C@H]1C(=O)N2C(C(=O)O)=C(SCCNC=N)C[C@H]12 [IMIPENEM ANHYDROUS]
half-life [1]: 1 h | Survival (Mus musculus): 56 h

SMILES: C=C/C(C)=C/C[C@@H]1[C@@]2(C)CCC[C@](C)(CO)[C@@H]2C[C@H](O)[C@]1(O)CSC[C@H](NC(C)=O)C(=O)O
fold change (FC) (Staphylococcus aureus [9]): 123

SMILES: C=C/C(C)=C/C[C@@H]1[C@@]2(C)CCCC(C)(C)[C@@H]2C[C@H](O)[C@]1(O)CSC[C@H](NC(C)=O)C(=O)OC
fold change (FC) (Staphylococcus aureus [9]): 533

Now from value to compound:

half-life [1]: 1.2 h | clearance [2]: 159 mL/min | clearance [3]: 48.7 mL/min | Drug uptake (Blood [4]): 37 mg/L | Drug uptake (Blood [5]): 61 mg/L | Ratio [6]: 8
SMILES: CC(=N)N1CC[C@H](SC2=C(C(=O)O)N3C(=O)[C@H]([C@@H](C)O)[C@H]3C2)C1 [PANIPENEM]

MIC (Staphylococcus aureus [7]): 0.05 µg/mL
SMILES: C=C/C(C)=C/C[C@@H]1[C@@]2(C)CCCC(C)(C)[C@@H]2C[C@H](O)[C@]1(O)CSC[C@H](NC(C)=O)C(=O)O

half-life [8]: 4 h | PPB (Plasma): 94%
SMILES: C[C@@H](O)[C@H]1C(=O)N2C(C(=O)O)=C(S[C@@H]3CN[C@H](C(=O)Nc4cccc(C(=O)O)c4)C3)[C@H](C)[C@H]12 [ERTAPENEM]

Drug uptake (Blood [4]): 24 mg/L | Drug uptake (Blood [5]): 39 mg/L
SMILES: O=C(O)CCNC(=O)c1ccccc1 [BETAMIPRON]
